Test results published in US9980949B2, “SNS-595 and methods of using the same” (Sunesis Pharmaceuticals, Inc., priority 2004, dated 2018).

Legend:
HCT116 cells = test: Combination studies with SNS-595, MTT assay, median-effect Combination Index; assay type: cell-based; conditions: combination with SNS-595 at constant ratio, 72 hours, <0.90 synergistic, 0.90-1.10 additive, >1.10 antagonistic
Experimental: The final DMSO concentration was 1% in the assay plate. The treated cells were incubated for 72 hours at 37° C., 5% CO2 before adding 20 μl/well 3-[4,5-dimethylthiazol-2-yl]-2,5-diphenyltetrazolium bromide (MTT) for 1 hour followed by 100 μl/well N,N-dimethyl formamide/SDS lysis buffer for at least 16 hours. The plates were read for absorbance at a wavelength of 595 nm. The data was worked up using the median-effect method that quantifies the interaction using a Combination Index (calculated using the software for dose effect analysis, Calcusyn V2(Biosoft). A combination is said to be additive if it yields a Combination Index of 0.90-1.10. A combination is said to be synergistic if it yields a Combination Index less than 0.90 and a combination is said to be antagonistic if it yields a Combination Index of more than 1.10. All Combination Index calculations were at a Fa value of 0.5, the point where 50% of the cells were dead. See Table 2.

DNA-PK null cell line = test: Inhibition of cell growth (MTT) by SNS-595 in DNA-PK null cell line; assay type: cell-based; conditions: DNA-PK null cell line instead of HCT-116 cells
Experimental: (§1) HCT-116 colon cancer cells were plated at a density of approximately […] with 100 μl/well of RPMI-1640 media (supplemented with 10% fetal bovine serum, 1% antibiotic/antimycotic, and 1.5% sodium bicarbonate) in a 96-well clear tissue-culture treated plate for 24 hours at 37° C., 5% CO2. Some cells were treated with 100 nM wortmannin for 8-16 hours. SNS-595 was then added as a serial dilution, and cells were incubated for 72 hours at 37° C., 5% CO2. MTT (20 μl/well of a 5 mg/ml stock solution) was added for 1 hour, followed by N,N-dimethyl formamide/SDS lysis buffer for at least 16 hours. Absorbance was monitored at 595 nm and data were fit by nonlinear regression to determine the inhibition of cell growth (IC50) by SNS-595 in the absence and presence of wortmannin. […] Similar results were seen when DNA-PK null cell line (approximately a 10 fold sensitization) was used instead of HCT-116 cells.

[1] = Solubility in acidic compositions; assay type: physicochemical; conditions: acidic compositions (<pH 4)
Experimental: An illustrative example of a suitable composition comprises: 10 mg SNS-595 per mL of aqueous solution of 4.5% sorbitol that is adjusted to pH 2.5 with methanesulfonic acid. One protocol for making such a solution includes the following for making a 100 mg/10 mL presentation: 100 mg of SNS-595 and 450 mg D-sorbitol are added to distilled water; the volume is brought up to a volume of 10 mL; and the pH of the resulting solution is adjusted to 2.5 with methanesulfonic acid. The resulting composition is also suitable for lyophilization. The lyophilized form is then reconstituted with sterile water to the appropriate concentration prior to use.

DNA-PK pathway [2] = test: Dose-dependent responses of DNA-PK pathway members in HCT 116 cells (FIG. 2); assay type: cell-based; conditions: H2AX, c-Abl, p53, p73, p21, caspase-9, caspase-3
Text: (§2) This damage impedes the ability of the cell to synthesize DNA and lengthens the time the cell spends in the S phase. […] When the DNA damage is sufficiently severe such that the double-strand breaks cannot be repaired through non-homologous end joining (NHEJ), the cell rapidly enters apoptosis. Some cells are able to reach the G2 phase but are subsequently arrested (mediated by cdc2/cyclin B) because the cells are too damaged to enter into the M phase and also eventually becomes apoptotic.

topoisomerase II = test: Catalytic inhibition of topoisomerase II (decatenation and relaxation of supercoiled DNA); assay type: biochemical; conditions: inhibits decatenation and relaxation of supercoiled DNA, no formation of cleavable complexes
Text: (§3) SNS-595 is a cell cycle inhibitor and arrests cells at the G2 interface. Initially, the activity of SNS-595 was believed due to topoisomerase II inhibition.

various cells = test: Cellular potency (EC50) in various cells; assay type: cell-based
Text: as §3

non-proliferating cells = assay type: cell-based
Text: as §2, with “Treatment with SNS-595 results in an increase in the number of double-strand DNA breaks that form during the S phase. This” for “This”

[3] = test system: 2-deoxyglucose treated cells; test: Activity in cells with topoisomerase II levels modulated by 2-deoxyglucose; assay type: cell-based; conditions: topoisomerase II levels modulated using 2-deoxyglucose
Text: as §3

[4] = test system: stable variant of HCT-116 cells; test: Sensitivity of a stable SNS-595-resistant variant of HCT-116 cells; assay type: cell-based; conditions: stable variant with induced resistance
Text: Consistent with this mechanism, cells with induced resistance to SNS-595 also have alterations in the DNA-PK pathway. […] Conversely, decreased levels of DNA-PK or its activity (e.g. in the presence of an inhibitor) is associated with an increased sensitivity to SNS-595.

DNA-PK pathway [5] = test: Pharmacodynamic study: DNA-PK pathway members in HCT116 xenograft tumors (Western blots); assay type: in vivo, Nu/nu mice; conditions: IV bolus 20 or 40 mg/kg, 1-24 hours post dose, FIG. 3
Experimental: Nu/nu mice (ca. 25 grams) were injected with HCT116 cells (which were obtained from the ATCC) in the hind flank at 5 million cells with 50% matrigel (Becton-Dickinson). Tumors were allowed to grow to 400 mm^3. Xenograft bearing animals were then given either an IV bolus injection of SNS-595 (20 or 40 mg/kg) in the tail vein or a saline vehicle. At prescribed time points (1, 2, 4, 8, 16, and 24 hours post dose), animals were anesthetized with CO2, blood was taken via terminal cardiac puncture, and animals were sacrificed. Tumors were excised, pulverized using liquid nitrogen-cooled mortar and pestle, and flash-frozen in liquid nitrogen. Tumor lysates were made from pulverized samples by addition of lysis buffer. The protein concentrations of the DNA-PK pathway members were determined by Western blots. Approximately 25 micrograms of protein was loaded per lane on an SDS-PAGE gel. Proteins were separated by gel electrophoresis, blotted onto nitrocellulose membranes, and detected using the following antibodies: H2AX, phosphorylated at […] (Cell Signaling, catalog no. 2577L); p53, phosphorylated at S15 (Cell Signaling, catalog no. 9284S); p53, phosphorylated at S37 (Cell Signaling, catalog no. 9289S); p21 (Cell Signaling, catalog no. 2946); cdc2, phosphorylated at Y15 (Calbiochem, catalog no. 219437); cyclin B (Santa Cruz, catalog no. sc-594 (H-20)); p73, phosphorylated at […] […]

[6] = test system: HCT-116 colon cancer cells; test: Inhibition of cell growth (MTT) by SNS-595 in absence and presence of wortmannin; assay type: cell-based; conditions: HCT-116 cells, 100 nM wortmannin for 8-16 hours, 72 hours
Experimental: as §1

[7] = Pharmacokinetics of SNS-595 in cancer patients; assay type: in vivo, human; conditions: for C0: human, intravenous
Experimental: SNS-595 was administered to enrolled patients for up to six cycles. A cycle is defined as a three-week period, with SNS-595 administered on the first day of each cycle (day 0), followed by at least 21 days of observation. SNS-595 was administered to cohorts of at least 3 patients and dose escalation occurred by sequential cohort.

[8] = test system: cells where G2 arrest is abrogated; test: Cytotoxicity in cells where G2 arrest is abrogated by caffeine; assay type: cell-based; conditions: caffeine inhibits both ATM and ATR
Text: As shown by FIG. 1, ATM, ATR, and DNA-PK are three central DNA sensors/effectors that depending on the level of DNA damage that is detected within an individual cell, direct the cell into one of several outcomes including DNA repair, G2 arrest or apoptosis.

## N.N.[Cl][Pt][Cl] [Cisplatin]
HCT116 cells
  Combination Index @ Fa = 0.5: 0.54

## N.N.O=C([O-])C1(C(=O)[O-])CCC1.[Pt+2] [Carboplatin]
HCT116 cells
  Combination Index @ Fa = 0.5: 0.54

## Cn1cnc2c(NCc3ccccc3)nc(NCCO)nc21 [Olomucine]
HCT116 cells
  Combination Index @ Fa = 0.5: 1.00

## CC[C@H](CO)Nc1nc(NCc2ccccc2)c2ncn(C(C)C)c2n1 [Roscovitine]
HCT116 cells
  Combination Index @ Fa = 0.5: 1.10

## COC[C@H]1OC(=O)c2coc3c2[C@@]1(C)C1=C(C3=O)[C@@H]2CCC(=O)[C@@]2(C)C[C@H]1OC(C)=O [Wortmannin]
HCT116 cells
  Combination Index @ Fa = 0.5: 0.42

## CC(=O)O[C@@]12CO[C@@H]1C[C@H](O)[C@@]1(C)C(=O)[C@H](O)C3=C(C)[C@@H](OC(=O)[C@H](O)[C@@H](NC(=O)OC(C)(C)C)c4ccccc4)C[C@@](O)([C@@H](OC(=O)c4ccccc4)[C@H]21)C3(C)C [Docetaxel]
HCT116 cells
  Combination Index @ Fa = 0.5: 2.00

## COC1=C2C[C@@H](C)C[C@H](OC)[C@H](O)[C@@H](C)/C=C(\C)[C@H](OC(N)=O)[C@@H](OC)/C=C\C=C(/C)C(=O)NC(=CC1=O)C2=O [Geldanamycin]
HCT116 cells
  Combination Index @ Fa = 0.5: 0.47

## CN[C@H]1CN(c2ccc3c(=O)c(C(=O)O)cn(-c4nccs4)c3n2)C[C@@H]1OC [SNS-595, (+)-1,4-dihydro-7-[(3S,4S)-3-methoxy-4-(methylamino)-1-pyrrolidinyl]-4-oxo-1-(2-thiazoyl)-1,8-naphthyridine-3-carboxylic acid]
DNA-PK null cell line
  sensitization to SNS-595: ~10 fold
[1]
  solubility: increased solubility
DNA-PK pathway [2]
  activation of DNA-PK mediated repair and apoptotic cellular machinery: activates, in a dose dependent manner
Topoisomerase II
  IC50: ~5 µM
Various cells
  difference in potency, cellular EC50 versus biochemical inhibition of topoisomerase II: at least a ten-fold difference in increased potency
non-proliferating cells
  lethality to non-proliferating cells: non-lethal to non-proliferating cells
[3]
  difference in activity between 2-deoxyglucose treated cells and untreated cells: essentially no difference in activity
[4]
  sensitivity of resistant HCT-116 variant relative to HCT-116 cells: approximately ten fold less sensitive
DNA-PK pathway [5]
  levels of DNA-PK pathway members in tumors upon treatment: activated in tumors
[6]
  IC50 lower in the presence of wortmannin than in its absence: 3-6 fold
[7]; dose escalation by sequential cohort
  relation of dose to AUC∞: linear with AUC∞
[7]; 3 mg/m2, plasma, dose 3 mg/m^2
  C0: 153 ng/mL
[7]; 6 mg/m2, plasma, dose 6 mg/m^2
  C0: 377 ng/mL
[7]; 12 mg/m2, plasma, dose 12 mg/m^2
  C0: 2890 ng/mL
[7]; 24 mg/m2, plasma, dose 24 mg/m^2
  C0: 2920 ng/mL
[7]; 48 mg/m2, plasma, dose 48 mg/m^2
  C0: 1980 ng/mL
[7]; 60 mg/m2, plasma, dose 60 mg/m^2
  C0: 4800 ng/mL
[7]; plasma, dose 3 mg/m^2
  AUCINF_obs: 1139.55 ng·h/mL
  Cl_obs: 1.14 mL/min/kg
  Cmax: 138.80 ng/mL
  HL: 16.27 h
  MRTINF_obs: 21.95 h
  Vss_obs: 1.44 L/kg
  Vz_obs: 1.55 L/kg
[7]; plasma, dose 6 mg/m^2
  Cl_obs: 0.71 mL/min/kg
  Cmax: 347.00 ng/mL
  HL: 20.69 h
  Vss_obs: 1.24 L/kg
  Vz_obs: 1.28 L/kg
[7]; plasma, dose 12 mg/m^2
  AUCINF_obs: 6329.15 ng·h/mL
  Cl_obs: 0.76 mL/min/kg
  Cmax: 2246.67 ng/mL
  HL: 17.81 h
  Vss_obs: 1.07 L/kg
  Vz_obs: 1.17 L/kg
[7]; plasma, dose 24 mg/m^2
  AUCINF_obs: 12655.32 ng·h/mL
  AUClast: 11133.03 ng·h/mL
  Cl_obs: 0.83 mL/min/kg
  Cmax: 2703.33 ng/mL
  HL: 16.14 h
  Vss_obs: 1.06 L/kg
  Vz_obs: 1.15 L/kg
[7]; plasma, dose 48 mg/m^2
  AUCINF_obs: 27347.38 ng·h/mL
  Cl_obs: 0.99 mL/min/kg
  Cmax: 2868.00 ng/mL
  HL: 21.32 h
  Vss_obs: 1.48 L/kg
  Vz_obs: 1.57 L/kg
[7]; plasma, dose 60 mg/m^2
  Cl_obs: 0.83 mL/min/kg
  Cmax: 4537.50 ng/mL
  HL: 17.63 h
  Vss_obs: 1.08 L/kg
  Vz_obs: 1.20 L/kg
[8]
  difference in EC50 values, caffeine-treated (G2 arrest abrogated) versus untreated cells: essentially no difference in EC50 values
